Test results: PubChem BioAssay AID1963450 (Molecular Pharmacology Branch, DTP, NCI, 2024)

System: 556581-035-R-J1-PDC complex spheroid growth
Test: Anticancer human tumor 556581-035-R-J1-PDC patient-derived ovarian carcinoma cell line growth inhibition [Asc]
Settings: for IC50: curve of first compound; for viability, T/C: stronger effect = lower value
How it was run: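 Tumor cells were grown as multicellular spheroids with stromal HUVEC and mesenchymal stem cells and treated singly or in combination. Concentrations fell in half-log steps from the clinical Cmax, or from 10 microM where none was known.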
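Note: spheroids exposed to agents for 7 days before viability read.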

Question: For `O=C(c1ccc(F)c(F)c1Nc1ccc(I)cc1F)N1CC(O)([C@@H]2CCCCN2)C1` + CNC(C)C(=O)NC1CN(S(=O)(=O)c2cccc(S(=O)(=O)N3CCC4CCC(C(=O)NC(c5ccccc5)c5ccccc5)N4C(=O)C(NC(=O)C(C)NC)C3)c2)CCC2CCC(C(=O)NC(c3ccccc3)c3ccccc3)N2C1=O, which IC50 (second compound 0.01 µM) is on record?
Answer: 0.219 µM

Question: What about the IC50 (second compound 0.0316 µM) of the same compound?
Answer: 0.187 µM

Question: What about the IC50 (second compound 0.1 µM) of the same compound?
Answer: 0.092 µM

Question: And the IC50 (second compound 0.316 µM)?
Answer: 0.183 µM

Question: What about the IC50 (second compound 1 µM) of the same compound?
Answer: 0.119 µM

Question: And the viability, T/C (second compound 0.01 µM, first compound 0.00316 µM)?
Answer: 68.6%

Question: What about the viability, T/C (second compound 0.01 µM, first compound 0.01 µM) of the same compound?
Answer: 71.7%

Question: And the viability, T/C (second compound 0.01 µM, first compound 0.0316 µM)?
Answer: 87.2%

Question: And the viability, T/C (second compound 0.01 µM, first compound 0.1 µM)?
Answer: 83.6%

Question: And the viability, T/C (second compound 0.01 µM, first compound 0.316 µM)?
Answer: 37%

Question: What about the viability, T/C (second compound 0.01 µM, first compound 1 µM) of the same compound?
Answer: 10.6%

Question: What about the viability, T/C (second compound 0.0316 µM, first compound 0.00316 µM) of the same compound?
Answer: 86.4%

Question: What about the viability, T/C (second compound 0.0316 µM, first compound 0.01 µM) of the same compound?
Answer: 72.7%

Question: And the viability, T/C (second compound 0.0316 µM, first compound 0.0316 µM)?
Answer: 84.2%

Question: What about the viability, T/C (second compound 0.0316 µM, first compound 0.1 µM) of the same compound?
Answer: 71.9%

Question: And the viability, T/C (second compound 0.0316 µM, first compound 0.316 µM)?
Answer: 31.2%

Question: What about the viability, T/C (second compound 0.0316 µM, first compound 1 µM) of the same compound?
Answer: 13.3%

Question: And the viability, T/C (second compound 0.1 µM, first compound 0.00316 µM)?
Answer: 68.3%

Question: What about the viability, T/C (second compound 0.1 µM, first compound 0.01 µM) of the same compound?
Answer: 64.5%

Question: And the viability, T/C (second compound 0.1 µM, first compound 0.0316 µM)?
Answer: 59.7%

Question: And the viability, T/C (second compound 0.1 µM, first compound 0.1 µM)?
Answer: 50.8%

Question: And the viability, T/C (second compound 0.1 µM, first compound 0.316 µM)?
Answer: 27.1%

Question: What about the viability, T/C (second compound 0.1 µM, first compound 1 µM) of the same compound?
Answer: 12.7%

Question: And the viability, T/C (second compound 0.316 µM, first compound 0.00316 µM)?
Answer: 73.9%

Question: And the viability, T/C (second compound 0.316 µM, first compound 0.01 µM)?
Answer: 68.8%

Question: And the viability, T/C (second compound 0.316 µM, first compound 0.0316 µM)?
Answer: 91.7%

Question: What about the viability, T/C (second compound 0.316 µM, first compound 0.1 µM) of the same compound?
Answer: 66.3%

Question: What about the viability, T/C (second compound 0.316 µM, first compound 0.316 µM) of the same compound?
Answer: 33.7%

Question: And the viability, T/C (second compound 0.316 µM, first compound 1 µM)?
Answer: 15.2%

Question: And the viability, T/C (second compound 1 µM, first compound 0.00316 µM)?
Answer: 70.9%

Question: What about the viability, T/C (second compound 1 µM, first compound 0.01 µM) of the same compound?
Answer: 81.4%

Question: What about the viability, T/C (second compound 1 µM, first compound 0.0316 µM) of the same compound?
Answer: 74%

Question: What about the viability, T/C (second compound 1 µM, first compound 0.1 µM) of the same compound?
Answer: 53.6%

Question: And the viability, T/C (second compound 1 µM, first compound 0.316 µM)?
Answer: 24.6%

Question: What about the viability, T/C (second compound 1 µM, first compound 1 µM) of the same compound?
Answer: 11.2%

Question: How did the IC50 (second compound 0.1 µM) turn out when `Cc1nc(N2CCC3(CC2)COC(C)C3N)c(CO)nc1Sc1ccnc(N)c1Cl` (stereo not given) + Cc1c(S(C)(=O)=O)c(-c2cc(F)cc(N3CCN(c4ccc(NS(=O)(=O)c5ccc(NC(CCN6CCC(C(=O)OCCCP(=O)(O)O)CC6)CSc6ccccc6)c(S(=O)(=O)C(F)(F)F)c5)cc4)CC3)c2)c(-c2ccc(Cl)cc2)n1C(C)C was run?
Answer: 0.544 µM

Question: What about the IC50 (second compound 0.316 µM) of the same compound?
Answer: 0.389 µM

Question: What about the IC50 (second compound 1 µM) of the same compound?
Answer: 0.266 µM

Question: What about the IC50 (second compound 3.16 µM) of the same compound?
Answer: 0.097 µM

Question: And the IC50 (second compound 10 µM)?
Answer: 0.0141 µM

Question: And the viability, T/C (second compound 0.1 µM, first compound 0.00949 µM)?
Answer: 81.7%

Question: What about the viability, T/C (second compound 0.1 µM, first compound 0.03 µM) of the same compound?
Answer: 90.2%

Question: And the viability, T/C (second compound 0.1 µM, first compound 0.0949 µM)?
Answer: 62.4%

Question: And the viability, T/C (second compound 0.1 µM, first compound 0.3 µM)?
Answer: 57.5%

Question: What about the viability, T/C (second compound 0.1 µM, first compound 0.949 µM) of the same compound?
Answer: 47%

Question: And the viability, T/C (second compound 0.1 µM, first compound 3 µM)?
Answer: 36.2%

Question: What about the viability, T/C (second compound 0.316 µM, first compound 0.00949 µM) of the same compound?
Answer: 72.5%

Question: And the viability, T/C (second compound 0.316 µM, first compound 0.03 µM)?
Answer: 64.4%

Question: And the viability, T/C (second compound 0.316 µM, first compound 0.0949 µM)?
Answer: 54.9%

Question: And the viability, T/C (second compound 0.316 µM, first compound 0.3 µM)?
Answer: 53.8%

Question: And the viability, T/C (second compound 0.316 µM, first compound 0.949 µM)?
Answer: 47.6%

Question: What about the viability, T/C (second compound 0.316 µM, first compound 3 µM) of the same compound?
Answer: 32.8%

Question: What about the viability, T/C (second compound 1 µM, first compound 0.00949 µM) of the same compound?
Answer: 62%

Question: And the viability, T/C (second compound 1 µM, first compound 0.03 µM)?
Answer: 63.8%

Question: What about the viability, T/C (second compound 1 µM, first compound 0.0949 µM) of the same compound?
Answer: 59.5%

Question: And the viability, T/C (second compound 1 µM, first compound 0.3 µM)?
Answer: 49.1%

Question: And the viability, T/C (second compound 1 µM, first compound 0.949 µM)?
Answer: 31.2%

Question: What about the viability, T/C (second compound 1 µM, first compound 3 µM) of the same compound?
Answer: 30.6%

Question: And the viability, T/C (second compound 3.16 µM, first compound 0.00949 µM)?
Answer: 55.5%

Question: What about the viability, T/C (second compound 3.16 µM, first compound 0.03 µM) of the same compound?
Answer: 60.5%

Question: What about the viability, T/C (second compound 3.16 µM, first compound 0.0949 µM) of the same compound?
Answer: 50.3%

Question: What about the viability, T/C (second compound 3.16 µM, first compound 0.3 µM) of the same compound?
Answer: 35.7%

Question: And the viability, T/C (second compound 3.16 µM, first compound 0.949 µM)?
Answer: 39.9%

Question: And the viability, T/C (second compound 3.16 µM, first compound 3 µM)?
Answer: 29.8%

Question: What about the viability, T/C (second compound 10 µM, first compound 0.00949 µM) of the same compound?
Answer: 50.8%

Question: What about the viability, T/C (second compound 10 µM, first compound 0.03 µM) of the same compound?
Answer: 48.7%

Question: What about the viability, T/C (second compound 10 µM, first compound 0.0949 µM) of the same compound?
Answer: 43.7%

Question: And the viability, T/C (second compound 10 µM, first compound 0.3 µM)?
Answer: 30.7%

Question: And the viability, T/C (second compound 10 µM, first compound 0.949 µM)?
Answer: 37.4%

Question: What about the viability, T/C (second compound 10 µM, first compound 3 µM) of the same compound?
Answer: 22.3%
